Source: patent US20220386606A1, “SPECIFICALLY SUBSTITUTED 3-PHENYL-5-SPIROCYCLOPENTYL-3-PYRROLIN-2-ONES AND THEIR USE AS HERBICIDES” (Bayer Aktiengesellschaft, priority 2019, published 2022)

Experiments:
DIGSA = assay: Post-emergence herbicidal action against DIGSA; format: in vivo, Digitaria sanguinalis; settings: 80 g/ha, visual assessment about 3 weeks after treatment vs untreated controls
Procedure, shortened: (§1)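 Weeds and crops grown in sandy loam in the greenhouse, treated post-emergence at the one-leaf stage (2–3 weeks after sowing). WP or EC formulations sprayed as aqueous suspension/emulsion at 600–800 l/ha water with 0.2% wetting agent. Visual % activity scored after about 3 weeks versus untreated controls (100% = dead, 0% = like control).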

AVEFA = assay: Post-emergence herbicidal action against AVEFA; format: in vivo, Avena fatua; settings: 80 g/ha, visual assessment after about 3 weeks
Procedure, shortened: as §1

HORMU = assay: Post-emergence herbicidal action against HORMU; format: in vivo, Hordeum murinum; settings: 80 g/ha, visual assessment about 3 weeks after treatment vs untreated controls
Protocol: Seeds of monocotyledonous and dicotyledonous weed and crop plants are laid out in sandy loam soil in wood-fiber pots, covered with soil and cultivated in a greenhouse under good growth conditions. 2 to 3 weeks after sowing, the test plants are treated at the one-leaf stage. The compounds of the invention, formulated in the form of wettable powders (WP) or as emulsion concentrates (EC), are then sprayed onto the green parts of the plants as aqueous suspension or emulsion at a water application rate equating to 600 to 800 l/ha with addition of 0.2% wetting agent. After the test plants have been left to stand in the greenhouse under optimal growth conditions for about 3 weeks, the action of the preparations is assessed visually in comparison to untreated controls (herbicidal action in percent (%): 100% activity=the plants have died, 0% activity=like control plants).

SETVI = assay: Post-emergence herbicidal action against SETVI; format: in vivo, Setaria viridis; settings: 80 g/ha, visual assessment about 3 weeks after treatment vs untreated controls
Procedure, shortened: as §1

ABUTH = assay: Post-emergence herbicidal action against ABUTH; format: in vivo, Abutylon threophrasti; settings: 80 g/ha, visual assessment about 3 weeks after treatment vs untreated controls
Procedure, shortened: as §1

LOLRI = assay: Post-emergence herbicidal action against LOLRI; format: in vivo, Lolium rigidum; settings: 80 g/ha, visual assessment about 3 weeks after treatment vs untreated controls
Procedure, shortened: as §1

ALOMY = assay: Post-emergence herbicidal action against ALOMY; format: in vivo, Alopecurus myosuroides; settings: 80 g/ha, visual assessment after about 3 weeks
Procedure, shortened: as §1

ECHCG = assay: Post-emergence herbicidal action against ECHCG; format: in vivo, Echinochloa crus-galli; settings: 80 g/ha, visual assessment about 3 weeks after treatment vs untreated controls
Procedure, shortened: as §1

| Compound | Post-emergence action against DIGSA in % (DIGSA) | Post-emergence action against AVEFA in % (AVEFA) | Post-emergence action against HORMU in % (HORMU) | Post-emergence action against SETVI in % (SETVI) | Post-emergence action against ABUTH in % (ABUTH) | Post-emergence action against LOLRI in % (LOLRI) | Post-emergence action against ALOMY in % (ALOMY) | Post-emergence action against ECHCG in % (ECHCG) |
| --- | --- | --- | --- | --- | --- | --- | --- | --- |
| CC#Cc1cc(Cl)c(C2=C(OC(=O)OCC)C3(CCC(COCC)C3)NC2=O)c(OC)c1 (centres unmarked) [Example P-26] | 100% | 100% | 100% | 100% | 80% | 100% | 100% | 100% |
| CC#Cc1cc(C)c(C2=C(O)C3(CCC(COC)C3)NC2=O)c(Cl)c1 (centres unmarked) [Example I-06] | 100% | 100% | 100% | 100% | 80% | 100% | 100% | 100% |
| CC#Cc1cc(Cl)c(C2=C(OC(=O)C(C)C)C3(CCC(COC)C3)NC2=O)c(CC)c1 (centres unmarked) [Example P-14] | 100% | 100% | 100% | 100% | 90% | 100% | 100% | 100% |
| C#Cc1cc(Cl)c(C2=C(O)C3(CCC(COC)C3)NC2=O)c(OC)c1 (centres unmarked) [Example I-13] | 100% | 90% | 90% | 100% | – | 90% | 100% | 100% |
| CC#Cc1cc(Cl)c(C2=C(OC(=O)C(C)C)C3(CCC(COCC)C3)NC2=O)c(CC)c1 (centres unmarked) [Example P-07] | 100% | 100% | 100% | 100% | – | 100% | 100% | 100% |
| CC#Cc1cc(C)c(C2=C(O)C3(CCC(COC)C3)NC2=O)c(Cl)c1 (centres unmarked) [Example I-12] | 100% | 100% | 100% | 100% | 90% | 100% | 100% | 100% |
| CC#Cc1cc(Cl)c(C2=C(OC(=O)C(C)C)C3(CCC(COCC)C3)NC2=O)c(OC)c1 (centres unmarked) [Example P-25] | 100% | 100% | 100% | 100% | 90% | 100% | 100% | 100% |
| C#Cc1cc(Cl)c(C2=C(OC(=O)OCC)C3(CCC(COC)C3)NC2=O)c(OC)c1 (centres unmarked) [Example P-02] | 100% | 100% | 100% | 100% | – | 100% | 100% | 100% |
| CC#Cc1cc(Cl)c(C2=C(O)C3(CCC(COC)C3)NC2=O)c(CC)c1 (centres unmarked) [Example I-04] | 100% | 100% | 100% | 100% | – | 100% | 100% | 100% |
| CC#Cc1cc(C)c(C2=C(OC(=O)OCC)C3(CCC(COC)C3)NC2=O)c(Cl)c1 (centres unmarked) [Example P-24] | 100% | 100% | 100% | 100% | – | 100% | 100% | 100% |
| CC#Cc1cc(C)c(C2=C(OC(=O)C(C)C)C3(CCC(COCC)C3)NC2=O)c(Cl)c1 (centres unmarked) [Example P-03] | 100% | 100% | 100% | 100% | 80% | 100% | 100% | 100% |
| CC#Cc1cc(Cl)c(C2=C(OC(=O)C(C)C)C3(CCC(COC)C3)NC2=O)c(CC)c1 (centres unmarked) [Example P-22] | 100% | 100% | 100% | 100% | – | 100% | 100% | 100% |
| CC#Cc1cc(Cl)c(C2=C(O)C3(CCC(COC)C3)NC2=O)c(CC)c1 (centres unmarked) [Example I-16] | 100% | 100% | 100% | 100% | – | 100% | 100% | 100% |
| CC#Cc1cc(Cl)c(C2=C(O)C3(CCC(COCC)C3)NC2=O)c(CC)c1 (centres unmarked) [Example I-03] | 100% | 100% | 100% | 100% | – | 100% | 100% | 100% |
| CC#Cc1cc(C)c(C2=C(O)C3(CCC(COCC)C3)NC2=O)c(Cl)c1 (centres unmarked) [Example I-09] | 100% | 100% | 100% | 100% | – | 100% | 100% | 100% |
| CC#Cc1cc(Cl)c(C2=C(OC(=O)C(C)C)C3(CCC(COCC)C3)NC2=O)c(CC)c1 (centres unmarked) [Example P-12] | 100% | 100% | 100% | 100% | – | 100% | 100% | 100% |
| CC#Cc1cc(Cl)c(C2=C(O)C3(CCC(COCC)C3)NC2=O)c(OC)c1 (centres unmarked) [Example I-07] | 100% | 100% | 100% | 100% | – | 100% | 100% | 100% |
